Laboratory results: PMC11676775, “Novel Copper(II) Coordination Compounds Containing Pyridine Derivatives of N^4-Methoxyphenyl-Thiosemicarbazones with Selective Anticancer Activity” (Molecules, 2024)
Where two headings read alike, the source gives them in different places.

Tests used:
HeLa cancer cell line = assay: Cell proliferation resazurin assay, HeLa; format: cell-based, human; conditions: 24 h incubation
Protocol: (§1) The proliferation of HeLa, BxPC-3, RD, and MDCK cells was assessed using resazurin. Triplicate cultures of 1 × 10^4 cells in 100 μL of medium were incubated at 37 °C, 3% CO2, in 96-well plates. Compounds were dissolved in DMSO to form 1 × 10⁻^2 M solutions, then diluted with media and added to wells for a 24 h incubation. Following this, 20 μL of resazurin solution was added and incubated for 4 h. Absorbance was measured at 570 nm and 600 nm.
(§2) Percentage inhibition was calculated as follows:(2) I (%)=100−Abs570 nmsample−Abs600 nmsample /[…]−Abs600 nmcontrol ×100
(§3) The formula accounts for absorbance differences at 570 nm and 600 nm to determine cell viability.
(§4) The half maximal inhibitory concentration (IC50) indicated the effectiveness of the compounds on cell lines, as defined by FDA guidelines as the concentration needed for 50% inhibition in vitro. Toxicity was assessed via the median lethal concentration (LC50), the concentration causing death in 50% of juvenile daphnids, calculated using a dose–response equation via least squares fitting. All data are presented as mean ± standard deviation (SD). Statistical analyses were conducted with specialized software.

MCF-7 cancer cell line = assay: Cell proliferation MTT assay, MCF-7; format: cell-based, human
Protocol: (§5) The MTT assay, a colorimetric method, quantifies viable cells to evaluate cytotoxic effects on LNCaP, MCF-7, HepG-2, and K-562 cell lines. It measures the conversion of MTT to insoluble formazan by mitochondrial succinate dehydrogenase in active cells, reflecting cell viability. Compounds were dissolved in saline and DMSO (≤0.1%) and tested at 0.1, 1, and 10 μM concentrations, following Mosmann’s method.
(§6) Suspension cells were centrifuged, and adherent cells were trypsinized then diluted to 5 × 10⁴ cells/mL in RPMI 1640 with 10% fetal bovine serum. Subsequently, 5 × 10^3 cells in 100 μL were plated in 96-well plates and incubated for attachment. After adding compounds, cells were incubated for 24 h at 37 °C and 3% CO2. MTT reagent was introduced, and cells were monitored for formazan presence under a microscope.
(§7) Upon observing purple precipitate, detergent reagent was added, and plates were kept in the dark for 4 h. Absorbance was measured at 540 nm using a BioTek reader (Agilent, Santa Clara, CA, USA). Results, indicating percent inhibition, were calculated using the following formula:(3) I (%)=100−Abs540 nmsample /Abs540 nmcontrol ×100
(§8) IC50 values were determined as a measure of compound efficacy on cancer cell proliferation.

RD cancer cell line = assay: Cell proliferation resazurin assay, RD; format: cell-based, human; conditions: 24 h incubation
Protocol: as §1, §2, §3, §4

BxPC-3 cancer cell line = assay: Cell proliferation resazurin assay, BxPC-3; format: cell-based, human; conditions: BxPC-3, 24 h incubation
Protocol: as §1, §2, §3, §4

HL-60 cancer cell line = assay: Antiproliferative activity, HL-60; format: cell-based, human
K-562 cancer cell line = assay: Cell proliferation MTT assay, K-562; format: cell-based, human
Protocol: as §5, §6, §7, §8

MDCK normal cell line = assay: Cell proliferation resazurin assay, MDCK normal cell line; format: cell-based, canine; conditions: 24 h incubation
Protocol: as §1, §2, §3, §4

LNCaP cancer cell line = assay: Cell proliferation MTT assay, LNCaP; format: cell-based, human; conditions: 24 h incubation
Protocol: as §5, §6, §7, §8

HepG-2 cancer cell line = assay: Cell proliferation MTT assay, HepG-2; format: cell-based, human
Protocol: as §5, §6, §7, §8

Daphnia magna = assay: in vivo; conditions: pH 7
Protocol: Toxicity testing for certain substances was conducted using Daphnia magna, following ISO 6341:2012 guidelines. Daphnia magna were cultured parthenogenetically at the Institute of Zoology and fed Chlorella vulgaris grown aseptically. The algal medium included CaCl2, NaHCO3, KCl, and MgSO4·7H2O, with pH adjusted to 7.0 and O2 ≥ 6.00 mg/L. Juvenile daphnids were cultured in 24-well plates, each holding 10 daphnids in 1000 μL of each compound dilution. The bioassay tested concentrations from 0.1 to 100 μM to determine LC50, using doxorubicin as the positive control and a 0.1% DMSO solution as the negative control. The daphnids were incubated at 22 ± 2 °C with a 16 h/8 h light/dark cycle.
The experiment was conducted in triplicate to ensure accuracy.
as §4

[1] = tested on: HeLa, RD, and BxPC-3 cancer cell lines; assay: Antiproliferative activity, summary over HeLa, RD and BxPC-3 cell lines; format: cell-based; conditions: Homo sapiens; range over the three cancer cell lines; read-out: IC50 range against HeLa, RD, and BxPC-3 cell lines
Protocol: as §1, §2, §3, §4

[2] = Homo sapiens, MCF7, MCF-7, 24 h incubation
[3] = Homo sapiens, K562, K-562, 24 h incubation
[4] = Homo sapiens, HepG2, HepG-2, 24 h incubation
[5] = other: immersion in compound dilution

IC50 (HeLa cancer cell line) [nM]	IC50 (RD cancer cell line) [nM]	IC50 (BxPC-3 cancer cell line) [nM]	IC50 (HeLa cancer cell line; Homo sapiens) [nM]	IC50 (MCF-7 cancer cell line; [2]) [nM]	IC50 (RD cancer cell line; Homo sapiens) [nM]	IC50 (BxPC-3 cancer cell line; Homo sapiens) [nM]	IC50 (HL-60 cancer cell line; Homo sapiens) [nM]	IC50 (K-562 cancer cell line; [3]) [nM]	IC50 (LNCaP cancer cell line; Homo sapiens) [nM]	IC50 (HepG-2 cancer cell line; [4]) [nM]	SMILES	IC50 (MDCK normal cell line) [nM]	IC50 (MDCK normal cell line; Canis lupus familiaris) [nM]	LC50 at 24 h (Daphnia magna; [5]) [nM]	further results
			100 ± 10	3500 ± 500	200 ± 30	100 ± 40	10 ± 4	900 ± 50	900 ± 50	600 ± 60	COc1cccc(NC(=S)N/N=C/c2ccccn2)c1 [HL^2, N-(3-Methoxyphenyl)-2-[(pyridin-2-yl)methylidene] hydrazine-1-carbothioamide]		400 ± 60	13000	IC50 [1]: 100 to 200 nM
			100000 ± 5900	100000 ± 4600	500 ± 40	2100 ± 200	10 ± 1	10000 ± 1600	100000 ± 4200	52000 ± 10	COc1ccc(NC(=S)N/N=C/c2ccccn2)cc1 [HL^3, N-(4-Methoxyphenyl)-2-[(pyridin-2-yl)methylidene] hydrazine-1-carbothioamide]		100000 ± 4600	35000	IC50 [1]: 500 to 100000 nM
			5800 ± 1200	55000 ± 2100	11600 ± 500	100 ± 30	60 ± 4	16000 ± 2200	100000 ± 3100	3100 ± 300	COc1cccc(NC(=S)N/N=C(\C)c2ccccn2)c1 [HL^4, N-(3-Methoxyphenyl)-2-[1-(pyridin-2-yl)ethylidene] hydrazine-1-carbothioamide]		14900 ± 1600	14000	IC50 [1]: 100 to 11000 nM
			100000 ± 4200	5200 ± 600	500 ± 60	3200 ± 300	20 ± 6	100 ± 10	8100 ± 1200	300 ± 10	COc1cccc(NC(=S)N/N=C(/c2ccccc2)c2ccccn2)c1 [HL^5, N-(3-Methoxyphenyl)-2-[phenyl (pyridin-2-yl)methylidene] hydrazine-1-carbothioamide]		100000 ± 3800	45000	IC50 [1]: 500 to 100000 nM

Second part, the compound before the results:

SMILES	IC50 (HeLa cancer cell line) [nM]	IC50 (RD cancer cell line) [nM]	IC50 (BxPC-3 cancer cell line) [nM]	IC50 (HeLa cancer cell line; Homo sapiens) [nM]	IC50 (MCF-7 cancer cell line; [2]) [nM]	IC50 (RD cancer cell line; Homo sapiens) [nM]	IC50 (BxPC-3 cancer cell line; Homo sapiens) [nM]	IC50 (HL-60 cancer cell line; Homo sapiens) [nM]	IC50 (K-562 cancer cell line; [3]) [nM]	IC50 (LNCaP cancer cell line; Homo sapiens) [nM]	IC50 (HepG-2 cancer cell line; [4]) [nM]	IC50 (MDCK normal cell line) [nM]	IC50 (MDCK normal cell line; Canis lupus familiaris) [nM]	LC50 at 24 h (Daphnia magna; [5]) [nM]	further results
COc1ccccc1NC(=NN=Cc1ccccn1)[S][Cu][Cl] [C1, [Cu(L^1)Cl]]	800 ± 40	100 ± 10	100 ± 20									300 ± 20			IC50 (MCF-7 cancer cell line; MCF-7, 24 h incubation): 100000 ± 4200 nM; IC50 (HL-60 cancer cell line): 35000 ± 2100 nM; IC50 (K-562 cancer cell line; K-562, 24 h incubation): 64000 ± 1400 nM; IC50 (LNCaP cancer cell line): 45000 ± 2100 nM; IC50 (HepG-2 cancer cell line; HepG-2, 24 h incubation): 68000 ± 4200 nM
COc1ccccc1NC(=NN=Cc1ccccn1)[S][Cu][O][N+](=O)[O-] [C2, [Cu(L^1)NO3]]	800 ± 30	100 ± 10	100 ± 10									600 ± 30			IC50 (MCF-7 cancer cell line; MCF-7, 24 h incubation): 100 ± 50 nM; IC50 (HL-60 cancer cell line): 30 ± 1 nM; IC50 (K-562 cancer cell line; K-562, 24 h incubation): 500 ± 10 nM; IC50 (LNCaP cancer cell line): 800 ± 30 nM; IC50 (HepG-2 cancer cell line; HepG-2, 24 h incubation): 400 ± 50 nM
COc1cccc(NC(=NN=Cc2ccccn2)[S][Cu][O][N+](=O)[O-])c1 [C4, [Cu(L^2)NO3]]	100 ± 10	100 ± 60	100 ± 50									1300 ± 400			
COc1ccc(NC(=NN=Cc2ccccn2)[S][Cu][Cl])cc1 [C5, [Cu(L^3)Cl]]	26100 ± 1200	19700 ± 2400	9400 ± 1200									26600 ± 2400			
COc1ccc(NC(=NN=Cc2ccccn2)[S][Cu][O][N+](=O)[O-])cc1 [C6, [Cu(L^3)NO3]]	1100 ± 50	1200 ± 30	100 ± 40									2100 ± 1500			IC50 (MCF-7 cancer cell line; MCF-7, 24 h incubation): 600 ± 30 nM; IC50 (HL-60 cancer cell line): 30 ± 6 nM; IC50 (K-562 cancer cell line; K-562, 24 h incubation): 30 ± 2 nM; IC50 (LNCaP cancer cell line): 300 ± 40 nM; IC50 (HepG-2 cancer cell line; HepG-2, 24 h incubation): 600 ± 30 nM
COc1cccc(NC(=NN=C(C)c2ccccn2)[S][Cu][O][N+](=O)[O-])c1 [C7, [Cu(L^4)NO3]]	100 ± 40	500 ± 60	200 ± 50									900 ± 40			
COc1cccc(NC(=NN=C(C)c2ccccn2)[S][Cu][Cl])c1 [C8, [Cu(L^4)Cl]]	100 ± 30	200 ± 40	100 ± 70									1100 ± 60			
[NH2][Pt]([NH2])([Cl])[Cl] [CDDP, cisplatin, reference compound]	30900 ± 1200	4600 ± 600	11200 ± 1300									1500 ± 300			
COc1cccc2c1C(=O)c1c(O)c3c(c(O)c1C2=O)C[C@@](O)(C(=O)CO)C[C@@H]3O[C@H]1C[C@H](N)[C@H](O)[C@H](C)O1 [DOXO, doxorubicin, reference compound]				6200 ± 500	14000 ± 1500	16200 ± 1400	6000 ± 100	1000 ± 300	400 ± 30	1100 ± 20	2800 ± 1100		10800 ± 1200		LC50 at 24 h (Daphnia magna): 3600 nM
COc1ccccc1NC(=S)N/N=C/c1ccccn1 [HL^1, N-(2-Methoxyphenyl)-2-[(pyridin-2-yl)methylidene] hydrazine-1-carbothioamide]				81200 ± 5300	10000 ± 1200	100000 ± 4200	100 ± 50	40 ± 6	10000 ± 1200	100000 ± 4900	800 ± 40		10100 ± 1200	15000	
